In this test the target is T1, RmlT (Listeria monocytogenes, UniProt Q8Y838).
T1 sequence (Q8Y838 1-623): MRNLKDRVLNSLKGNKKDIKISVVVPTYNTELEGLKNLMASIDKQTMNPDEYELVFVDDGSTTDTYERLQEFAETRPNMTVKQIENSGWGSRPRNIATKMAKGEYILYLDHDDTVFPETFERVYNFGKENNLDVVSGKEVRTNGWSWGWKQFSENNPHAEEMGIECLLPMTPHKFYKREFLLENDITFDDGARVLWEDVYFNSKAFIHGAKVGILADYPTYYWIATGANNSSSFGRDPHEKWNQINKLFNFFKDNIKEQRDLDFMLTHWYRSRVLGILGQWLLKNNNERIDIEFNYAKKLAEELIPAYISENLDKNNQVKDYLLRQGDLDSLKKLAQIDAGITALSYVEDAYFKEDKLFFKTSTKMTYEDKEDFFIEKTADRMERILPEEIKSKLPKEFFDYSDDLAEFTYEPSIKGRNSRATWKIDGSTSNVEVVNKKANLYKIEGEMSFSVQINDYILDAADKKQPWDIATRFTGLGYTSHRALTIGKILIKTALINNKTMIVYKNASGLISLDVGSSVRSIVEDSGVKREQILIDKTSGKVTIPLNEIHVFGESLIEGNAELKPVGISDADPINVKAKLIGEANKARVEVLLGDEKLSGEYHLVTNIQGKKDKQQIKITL
In words: isothermal titration calorimetry. The test is classed as binding.

The values that follow come from publication PMC11697029 (Nature Communications, 2025).

Turning to `Cc1cn([C@H]2C[C@H](O)[C@@H](COP(=O)(O)OP(=O)(O)O[C@H]3O[C@H](CO)[C@@H](O)[C@H](O)[C@H]3O)O2)c(=O)[nH]c1=O` [TDP-glucose], the Kd (usually the equilibrium constant for the complex coming apart) is approximately 10 µM. The figure for `Cc1cn([C@H]2C[C@H](O)[C@@H](COP(=O)(O)OP(=O)(O)O[C@H]3O[C@@H](C)[C@H](O)[C@@H](O)[C@H]3O)O2)c(=O)[nH]c1=O` [TDP-rhamnose] is approximately 13 µM; for `Cc1cn([C@H]2C[C@H](O)[C@@H](COP(=O)(O)OP(=O)(O)O)O2)c(=O)[nH]c1=O` [TDP] it is approximately 50 µM.
